The record followed here is ChEMBL document CHEMBL1921747, “Novel cytotoxic chalcones from Litsea rubescens and Litsea pedunculata” (Bioorg Med Chem Lett, 2011).

The IC50 is the concentration at which inhibition is half-maximal. A lower IC50 goes with higher potency.

SMILES strings stand for the structures. Converted amounts (≈) assume the structure as drawn.

One test deals with A-431. Nature of the test: Cytotoxicity against human A431 cells after 48 hrs by MTT assay. The test is classed as functional, cell-based. The following applies: A-431, 48 h.
Test [1] concerns HL-60. Kind of test: Cytotoxicity against human HL60 cells after 48 hrs by MTT assay. It counts as functional, cell-based. Conditions: HL-60, 48 h. On the technique in general: Tetrazolium assays rely on reduction of a dye to a coloured formazan, in cell work by metabolically active cells.
Test [2] has as its system HL-60. Nature of the test: Ratio of cisplatin IC50 to compound IC50 for human HL60 cells. The test is classed as functional.
Another test has as its system HepG2. Nature of the test: Cytotoxicity against human HepG2 cells after 48 hrs by MTT assay. It counts as functional, cell-based. The following applies: HepG2, 48 h.

Consider `COC1=CC(=O)C2(OC2C)C(O)=C1C(=O)/C=C/c1ccccc1` (configuration not stated) [LITSEAONE A], for which the figures for the IC50 in the test on A-431, in the test on HL-60 [1] and in the test with HepG2 were 11.1 µg/mL (≈ 35.5 µM), 6.1 µg/mL (≈ 19.5 µM) and 23 µg/mL (≈ 73.6 µM), respectively. Besides, in the test with HL-60 [2], the “Ratio IC50” value came out at 2.1.

Regarding `COc1cc(O)c(C(=O)/C=C/c2ccccc2)c2c1OC(C)O2` (configuration not stated) [LITSEAONE B], the IC50 in the test with A-431 amounted to 13.9 µg/mL (≈ 44.5 µM); in the test on HL-60 [1] it was 10.2 µg/mL (≈ 32.7 µM); in the test on HepG2 it was 21.5 µg/mL (≈ 68.8 µM).
